Data: US11440913B2, “Aminoimidazopyridazines as kinase inhibitors” (BRISTOL-MYERS SQUIBB COMPANY, priority 2017, dated 2022)
Counter-ions that a name gives are not always drawn. Like-named read-outs stand apart in the source and are kept apart here.

Tests used:
[1] = biological target: His-GST-TVMV-hRIPK1(1-324) (Homo sapiens (Human), UniProt Q13546); assay: RIPK1 HTRF Binding Assay; settings: HTRF binding, 1 h at rt; read-out: RIPK1 (IC50)
How it was run: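 HTRF probe-displacement binding: 1 nM His-GST-TVMV-hRIPK1(1-324) (baculovirus construct), 90.6 nM probe, 0.2 nM anti-GST-Tb in 20 mM HEPES, 10 mM MgCl2, 0.015% Brij-35, 4 mM DTT, 0.05 mg/mL BSA. Incubated 1 h at rt; FRET 520/495 nm ratio, inhibition relative to DMSO-only wells.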

[2] = test system: MLKL phosphorylation in HT29-L23 human colorectal adenocarcinoma cells; assay: MLKL Phosphorylation High-Content Assay; type: cell-based; settings: 6 h, necroptosis induced with TNFα, SMAC mimetic and Z-VAD, read-out: pMLKL (IC50)
How it was run: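 HT29-L23 cells pretreated 30 min at 37 °C with compound (6.25 to 0.106 μM final), then necroptosis induced with TNFα 35 ng/mL, SMAC mimetic 700 nM and Z-VAD 140 nM for 6 h. Fixed cells immunostained for MLKL pS358 and imaged; IC50 and Ymax from 4-parameter logistic fit.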

His-GST-TVMV-hRIPK1(1-324), sequence (Q13546 1-324): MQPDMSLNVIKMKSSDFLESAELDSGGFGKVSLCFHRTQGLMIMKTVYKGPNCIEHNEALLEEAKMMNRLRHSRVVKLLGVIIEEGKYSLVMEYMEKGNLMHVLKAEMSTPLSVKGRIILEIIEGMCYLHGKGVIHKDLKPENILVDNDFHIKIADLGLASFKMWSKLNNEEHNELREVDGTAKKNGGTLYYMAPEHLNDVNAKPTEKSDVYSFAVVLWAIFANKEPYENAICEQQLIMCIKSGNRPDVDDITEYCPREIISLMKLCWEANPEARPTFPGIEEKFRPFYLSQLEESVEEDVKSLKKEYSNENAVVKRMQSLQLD

## [2H]C([2H])([2H])Oc1nc(C)c(-c2ccc3nc(NC(C)=O)cn3n2)cc1C(=O)NC([2H])([2H])c1cc(OC(F)(F)F)ccc1F [Example 175, 5-{2-acetamidoimidazo[1,2-b]pyridazin-6-yl}-N-{[2-fluoro-5-(trifluoromethoxy)phenyl](deutero)methyl}-2-(deutero)methoxy-6-methylpyridine-3-carboxamide]
[1]
  IC50: 4 nM
[2]; Homo sapiens
  IC50: 16 nM

## [2H]C([2H])([2H])Oc1nc(C)c(-c2ccc3nc(NC(C)=O)cn3n2)cc1C(=O)NCc1cc(OCC2CC2)ccc1F [Example 180, N-{[5-(cyclopropyhnethoxy)-2-fluorophenyl]methyl}-5-{2-acetamidoimidazo[1,2-b]pyridazin-6-yl}-2-(deutero)methoxy-6-methylpyridine-3-carboxamide]
[1]
  IC50: 4 nM
[2]; Homo sapiens
  IC50: 18 nM

## CC(=O)Nc1cn2nc(-c3cnc(C)c(C(=O)Nc4cnn(C(C)c5ccc(F)cc5)c4)c3)ccc2n1 (centres unmarked) [Example 348, 5-{2-acetamidoimidazo[1,2-b]pyridazin-6-yl}-N-{1-[1-(4-fluorophenyl)ethyl]-1H-pyrazol-4-yl}-2-methylpyridine-3-carboxamide]
[1]
  IC50: 2 nM
[2]; Homo sapiens
  IC50: 27 nM

## CC(=O)Nc1cn2nc(-c3cnc(C)c(C(=O)NCc4ccccc4OC(F)(F)F)c3)ccc2n1 [Example 220, 5-{2-acetamidoimidazo[1,2-b]pyridazin-6-yl}-2-methyl-N-{[2-(trifluoromethoxy)phenyl]methyl}pyridine-3-carboxamide]
[1]
  IC50: 202 nM
[2]; Homo sapiens
  IC50: 406 nM

## [2H]C([2H])([2H])Oc1nc(C)c(-c2ccc3nc(NC(C)=O)cn3n2)cc1C(=O)NCc1ccccc1OC(F)(F)F [Example 178, 5-{2-acetamidoimidazo[1,2-b]pyridazin-6-yl}-2-(deutero) methoxy-6-methyl-N-{[2-(trifluoromethoxy)phenyl]methyl} pyridine-3-carboxamide]
[1]
  IC50: 4 nM
[2]; Homo sapiens
  IC50: 20 nM

## COc1ncc(-c2ccc3nc(NC(C)=O)cn3n2)cc1C(=O)N[C@H](C)c1cc(C(F)(F)F)ccc1F [Example 107, 5-{2-acetamidoimidazo[1,2-b]pyridazin-6-yl}-N-[(1R)-1-[2-fluoro-5-(trifluoromethyl)phenyl](2,2,2-deutero)ethyl]-2-methoxypyridine-3-carboxamide]
[1]
  IC50: 193 nM
[2]
  IC50: 306 nM

## COc1nc(C)c(-c2ccc3nc(NC(C)=O)cn3n2)cc1C(=O)NCc1ncccc1OCC1CCCC1 [Example 312, N-{[3-(cyclopentylmethoxy)pyridin-2-yl]methyl}-5-{2-acetamidoimidazo[1,2-b]pyridazin-6-yl}-2-methoxy-6-methylpyridine-3-carboxamide, 2 TFA]
[1]
  IC50: 7 nM
[2]
  IC50: 38 nM

## COc1nc(C)c(-c2ccc3nc(NC(C)=O)cn3n2)cc1C(=O)NCC[C@H](O)c1ccc(Cl)cc1 [Example 301, N-[(3S)-3-(4-chlorophenyl)-3-hydroxypropyl]-5-{2-acetamidoimidazo[1,2-b]pyridazin-6-yl}-2-methoxy-6-methylpyridine-3-carboxamide]
[1]
  IC50: 25 nM
[2]; Homo sapiens
  IC50: 22 nM

## CC(=O)Nc1cn2nc(-c3cnc(C)c(C(=O)NCc4cc(F)ccc4OC4CCCC4)c3)ccc2n1 [Example 222, N-{[2-(cyclopentyloxy)-5-fluorophenyl]methyl}-5-{2-acetamidoimidazo[1,2-b]pyridazin-6-yl}-2-methylpyridine-3-carboxamide]
[1]
  IC50: 3 nM
[2]; Homo sapiens
  IC50: 2 nM

## COc1ncc(-c2ccc3nc(NC(=O)C(C)C)cn3n2)cc1C(=O)NCc1cc(F)cc(F)c1OCC1CC1 [Example 5, N-{[2-(cyclopropylmethoxy)-3,5-difluorophenyl]methyl}-2-methoxy-5-[2-(2-methylpropanamido)imidazo[1,2-b]pyridazin-6-yl]pyridine-3-carboxamide]
[1]
  IC50: 7 nM
[2]; Homo sapiens
  IC50: 11 nM

## CC(=O)Nc1cn2nc(-c3cnc(Cl)c(C(=O)NC(C)c4cc(C(F)(F)F)ccc4F)c3)ccc2n1 (centres unmarked) [Example 270, 2-chloro-5-{2-acetamidoimidazo[1,2-b]pyridazin-6-yl}-N-{1-[2-fluoro-5-(trifluoromethyl)phenyl]ethyl}pyridine-3-carboxamide]
[1]
  IC50: 23 nM
[2]
  IC50: 204 nM

## [2H]C([2H])(NC(=O)c1cc(-c2ccc3nc(NC(C)=O)cn3n2)c(C)nc1C)c1cc(OC(F)(F)F)ccc1F [Example 76, 5-{2-acetamidoimidazo[1,2-b]pyridazin-6-yl}-N-{[2-fluoro-5-(trifluorometh-oxy)phenyl](deutero)methyl}-2,6-dimethylpyridine-3-carboxamide]
[1]
  IC50: 3 nM
[2]; Homo sapiens
  IC50: 8 nM

## CC(=O)Nc1cn2nc(-c3cc(F)c(C)c(C(=O)NCc4cccc(OC(F)(F)F)c4F)c3)ccc2n1 [Example 361, 5-{2-acetamidoimidazo [1,2-b]pyridazin-6-yl}-3-fluoro-N-{[2-fluoro-3-(trifluoromethoxy)phenyl]methyl}-2-methylbenzamide]
[1]
  IC50: 42 nM
[2]; Homo sapiens
  IC50: 135 nM

## [2H]C([2H])(NC(=O)c1cc(-c2ccc3nc(NC(C)=O)cn3n2)cnc1OC)c1cc(F)cc(F)c1OC1CCOCC1 [Example 153, 5-(2-acetamidoimidazo[1,2-b]pyridazin-6-yl)-N-((3,5-difluoro-2-((tetrahydro-2H-pyran-4-yl)oxy)phenyl)methyl-d2)-2-methoxynicotinamide]
[1]
  IC50: 1 nM
[2]; Homo sapiens
  IC50: 1 nM

## COc1nc(C)c(-c2ccc3nc(NC(C)=O)cn3n2)cc1C(=O)NC(C)c1cc(C(F)(F)F)ccc1F (centres unmarked) [Example 277, 5-{2-acetamidoimidazo[1,2-b]pyridazin-6-yl}-N-{1-[2-fluoro-5-(trifluoromethyl)phenyl]ethyl}-2-methoxy-6-methylpyridine-3-carboxamide]
[1]
  IC50: 107 nM
[2]
  IC50: 263 nM

## COc1ccc(-c2ccc3nc(NC(C)=O)cn3n2)c(F)c1C(=O)NCc1ccccc1OCC1CC1 [Example 377, N-{[2-(cyclopropylmethoxy)phenyl]methyl}-3-{2-acetamidoimidazo [1,2-b]pyridazin-6-yl}-2-fluoro-6-methoxybenzamide]
[1]
  IC50: 67 nM
[2]; Homo sapiens
  IC50: 135 nM

## Cc1ncc(-c2ccc3nc(NC(=O)CN(C)C)cn3n2)cc1C(=O)NCC[C@H](O)c1ccc(Cl)cc1 [Example 347, N-[(3S)-3-(4-chlorophenyl)-3-hydroxypropyl]-5-{2-[2-(dimethylamino)-acetamido]-imidazo[1,2-b]pyridazin-6-yl}-2-methylpyridine-3-carboxamide]
[1]
  IC50: 44 nM
[2]; Homo sapiens
  IC50: 89 nM

## CC(=O)Nc1cn2nc(-c3cnc(C)c(C(=O)N4CCCC(C(O)c5ccc(F)cc5)C4)c3)ccc2n1 (single isomer, unassigned) [Example 355, N-[6-(5-{3-[(4-fluorophenyl)(hydroxy)methyl]piperidine-1-carbonyl}-6-methylpyridin-3-yl)imidazo[1,2-b]pyridazin-2-yl] acetamide]
[1]
  IC50: 223 nM
[2]
  IC50: 553 nM

## N-({3,5-difluoro-2-[(3S)-oxolan- 3-yloxy]phenyl}methyl)-5-{2- acetamidoimidazo[1,2-b]pyridazin- 6-yl}-2-(D3)methoxypyridine- 3-carboxamide [Example 45]
[1]
  IC50: 13 nM
[2]
  IC50: 25 nM

## COc1nc(C)c(-c2ccc3nc(NC(C)=O)cn3n2)cc1C(=O)NCc1ccccc1OCC1CCCC1 [Example 316, N-{[2-(cyclopentylmethoxy)phenyl]methyl}-5-{2-acetamidoimidazo[1,2-b]pyridazin-6-yl}-2-methoxy-6-methylpyridine-3-carboxamide]
[1]
  IC50: 4 nM
[2]; Homo sapiens
  IC50: 8 nM

## CC(=O)Nc1cn2nc(-c3cc(C(=O)NCc4cccc(OCC(F)(F)F)c4)c(C)nc3C)ccc2n1 [Example 73, 5-{2-acetamidoimidazo[1,2-b]pyridazin-6-yl}-2,6-dimethyl-N-{[3-(2,2,2-trifluoroethoxy)phenyl]methyl}pyridine-3-carboxamide]
[1]
  IC50: 57 nM
[2]; Homo sapiens
  IC50: 82 nM

## COc1nc(C)c(-c2ccc3nc(NC(C)=O)cn3n2)cc1C(=O)NC(C)c1cc(C(F)(F)F)ccc1F (centres unmarked) [Example 276, 5-{2-acetamidoimidazo[1,2-b]pyridazin-6-yl}-N-{1-[2-fluoro-5-(trifluoromethyl)phenyl]ethyl}-2-methoxy-6-methylpyridine-3-carboxamide]
[1]
  IC50: 28 nM
[2]
  IC50: 39 nM

## COc1ccc(F)c(CNC(=O)c2cc(-c3ccc4nc(NC(C)=O)cn4n3)c(C)nc2C)c1 [Example 37, 5-(2-acetamidoimidazo[1,2-b]pyridazin-6-yl)-N-(2-fluoro-5-methoxybenzyl)-2,6-dimethylnicotinamide]
[1]
  IC50: 67 nM
[2]; Homo sapiens
  IC50: 208 nM

## CC(=O)Nc1cn2nc(-c3cnc(C)c(C(=O)NC(C)c4cc(C(F)(F)F)ccc4F)c3)ccc2n1 (centres unmarked) [Example 205, 5-{2-acetamidoimidazo[1,2-b]pyridazin-6-yl}-N-{1-[2-fluoro-5-(trifluoromethyl)phenyl]ethyl}-2-methylpyridine-3-carboxamide]
[1]
  IC50: 27 nM
[2]
  IC50: 74 nM

## COc1nc(C)c(-c2ccc3nc(NC(C)=O)cn3n2)cc1C(=O)NCc1cccc(F)c1OCC1CC1 [Example 299, N-{[2-(cyclopropylmethoxy)-3-fluorophenyl]methyl}-5-{2-acetamidoimidazo[1,2-b]pyridazin-6-yl}-2-methoxy-6-methylpyridine-3-carboxamide]
[1]
  IC50: 4 nM
[2]; Homo sapiens
  IC50: 1 nM
